The source of these data is patent publication US20070189973A1, “Contrast medium comprising liposomes containing hydrophobic chelate compound” (priority 2003, published 2007).

The test deals with vascular smooth muscle cells. As to the kind of experiment: Uptake amount of chelate compound by vascular smooth muscle cells (mixed culture with macrophages). Format: cell-based. Particulars: liposome preparation PC: 50 nmol+PS: 50 nmol+Compound 1: 75 nmol; mixed culture system of vascular smooth muscle cells and macrophage; 37° C., 5% CO2, 24 hours. As to the method:
Uptake Amount of Chelate Compound by Vascular Smooth Muscle Cells
Dipalmitoyl-PC (Funakoshi, No. 1201-41-0225) and dipalmitoyl-PS (Funakoshi, No. 1201-42-0237) at the ratio shown below were dissolved in chloroform together with a hydrophobic chelate compound (Compound 1 specifically shown above as a preferred compound) in an eggplant-shaped flask according to the method described in J. Med. Chem., 25 (12), 1500 (1982) to form a uniform solution. Then, the solvent was evaporated under reduced pressure to form a thin membrane on the bottom of the flask bottom. This thin membrane was dried in vacuum, then added with an appropriate amount of 0.9% physiological saline (Hikari Pharmaceutical, No. 512) and subjected to ultrasonication (No. 3542 probe type oscillator, Branson, 0.1 mW) for 5 minutes to obtain a uniform liposome dispersion. The diameters of the liposomes in the resulting dispersion were measured by using WBC analyzer (A-1042, Nihon Kohden). […] The liposome preparation mentioned below, which was produced by the above method, was added to a mixed culture system of vascular smooth muscle cells and macrophage described in International Publication WO 01/82977. The cells were cultured at 37° C. under 5% CO2 for 24 hours, and the amount of the chelate compound taken up into the vascular smooth muscle cells was quantified.
PC: 50 nmol+PS: 50 nmol+Compound 1: 75 nmol […]

For the molecule `CC(C)CCCC(C)C1CCC2C3C=CC4CC(OC(=O)COC(=O)CN(CCN(CC(=O)O)CC(=O)O)CCN(CC(=O)O)CC(=O)O)CCC4(C)C3CCC12C` (stereo not shown) [Compound 1], the “Amount taken up by vascular smooth muscle cells” value is listed as 20 nmol/mg protein.
